One data set in a line: CHI Log D procedure. The note with it: pH 7.4. The format is physicochemical.
A further data set is described as follows: Solubility in PBS. In kind it is physicochemical. The procedure, abridged:
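Solubility is derived from HPLC peak areas: the ratio of the PBS supernatant peak to a 50 μM DMSO peptide peak, times 50 uM.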

For data set [1], the target named is T1, full-length beta-Catenin (Uniprot ID P35222) (Homo sapiens, UniProt P35222).
T1 construct: 10 nM full-length beta-Catenin (Uniprot ID P35222)
T1 sequence (P35222 1-781): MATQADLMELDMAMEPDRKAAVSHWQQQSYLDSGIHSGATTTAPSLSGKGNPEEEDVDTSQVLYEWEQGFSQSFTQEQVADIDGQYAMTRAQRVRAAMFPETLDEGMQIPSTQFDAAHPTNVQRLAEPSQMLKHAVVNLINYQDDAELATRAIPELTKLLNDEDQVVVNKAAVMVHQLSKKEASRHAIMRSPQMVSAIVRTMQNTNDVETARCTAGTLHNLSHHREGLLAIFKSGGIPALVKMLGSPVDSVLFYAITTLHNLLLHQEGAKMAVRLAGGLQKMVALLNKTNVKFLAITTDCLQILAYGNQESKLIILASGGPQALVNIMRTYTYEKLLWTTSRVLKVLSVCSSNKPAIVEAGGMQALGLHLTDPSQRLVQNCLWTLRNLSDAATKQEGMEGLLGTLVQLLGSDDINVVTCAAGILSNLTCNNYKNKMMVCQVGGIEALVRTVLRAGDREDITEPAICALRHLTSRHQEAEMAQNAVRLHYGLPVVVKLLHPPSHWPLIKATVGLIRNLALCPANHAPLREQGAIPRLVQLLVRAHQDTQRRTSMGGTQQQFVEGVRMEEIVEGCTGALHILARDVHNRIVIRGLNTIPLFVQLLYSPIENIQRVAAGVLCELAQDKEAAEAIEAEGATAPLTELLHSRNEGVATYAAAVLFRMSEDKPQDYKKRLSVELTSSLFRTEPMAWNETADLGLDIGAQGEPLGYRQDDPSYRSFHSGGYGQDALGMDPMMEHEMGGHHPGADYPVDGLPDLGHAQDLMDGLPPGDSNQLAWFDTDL
Nature of the data set: Fluorescence polarization IC50 (beta-catenin / 5FAM-TCF4 10-53 competition). In kind it is binding. The note with it: fluorescence polarization; read-out: beta-Catenin FP IC50. (Fluorescence polarisation rises when a labelled molecule tumbles more slowly, as on binding a larger partner.)

In data set [2] the target is T2, beta-catenin/TCF4 engagement (Homo sapiens, UniProt P35222).
T2 construct: expressed in transfected cells; host or cells: HEK293
T2 sequence (P35222 1-781): T1 sequence (P35222 1-781)
Nature of the data set: Nano-BRET target engagement assay (B-cat-Halo & TCF4-Luc in HEK293 cells). The format is cell-based. The settings on record: absolute IC50; read-out: NanoBRET Abs IC50. (Bioluminescence resonance energy transfer reports proximity on the nanometre scale.)

This is an account of results in patent US20240116985A1, “STAPLED PEPTIDES AND METHODS THEREOF” (priority 2020, published 2024).

SMILES strings stand for the structures. Converted amounts (≈) assume the structure as drawn. Like-named read-outs stand apart in the source and are kept apart here.

In general, Solubility refers to how much of the substance goes into solution per volume. Low values mean a poorly soluble substance, high ones a readily soluble substance. Broadly, the IC50 is the concentration at which inhibition is half-maximal.

For `CC(=O)N1CCC[C@]12CC=CCCCC1(CCCC=CCCCCCC[C@@](C)(C(=O)N[C@@H](Cc3ccccc3)C(=O)N[C@@H](Cc3c[nH]c4ccccc34)C(=O)N[C@@H](CCC(N)=O)C(N)=O)NC(=O)[C@H](C(C)C)NC(=O)C(Cc3cncn3C)NC(=O)[C@H](C)NC(=O)[C@H](C)NC(=O)[C@H](CC(=O)O)NC(=O)[C@H](CC(=O)O)NC1=O)NC(=O)[C@H](C)NC(=O)[C@H](CC(=O)O)NC2=O` (single isomer, unassigned) [I-332, Ac-PL3-Asp-Ala-B5-Asp-Asp-Ala-Ala-3meH-Val-S8-Phe-Trp-Gln-NH2], the “CHI Log D” value in the data set “CHI Log D procedure” is 2.038. The “Solubility” value in the data set “Solubility in PBS” (15 min) turned out to be 40 µM (≈ 71.4 µg/mL).

With `CC(=O)N1CCC[C@]12CC=CCCCC1(CCCC=CCCCOC(=O)N3CC[C@@](C(=O)N[C@@H](Cc4ccsc4)C(=O)N[C@@H](Cc4csc5ccccc45)C(=O)N[C@@H](CCC(N)=O)C(N)=O)(C3)NC(=O)[C@H](Cc3cccc(C(F)(F)F)c3)NC(=O)[C@H](Cc3ccccc3)NC(=O)[C@H](C)NC(=O)[C@H](C)NC(=O)[C@H](CC(=O)O)NC(=O)[C@H](CC(=O)O)NC1=O)NC(=O)[C@H](CC(C)(C)C)NC(=O)[C@H](CC(=O)O)NC2=O` (stereo partly drawn) [I-1364, Ac-PL3-Asp-Npg-B5-Asp-Asp-Ala-Ala-Phe-3F3MeF-PyrS2-3Thi-BztA-Gln-NH2], the half-inhibitory concentration (IC50) in data set [1] turned out to be 9 nM; in data set [2], 10.5 µM. The same compound registered a Solubility in “Solubility in PBS” (Solubility (uM)) of 17 µM (≈ 34.3 µg/mL).

As to `CC(=O)N1CCC[C@]12CC=CCCCC1(CCCC=CCCCOC(=O)N3CC[C@@](C(=O)N[C@@H](Cc4ccsc4)C(=O)N[C@@H](Cc4csc5ccccc45)C(=O)N[C@@H](CCC(N)=O)C(N)=O)(C3)NC(=O)[C@H](Cc3ccc(C(F)(F)F)cc3)NC(=O)[C@H](Cc3ccccc3)NC(=O)[C@H](C)NC(=O)[C@H](C)NC(=O)[C@H](CC(=O)O)NC(=O)[C@H](CC(=O)O)NC1=O)NC(=O)[C@H](CC(C)(C)C)NC(=O)[C@H](CC(=O)O)NC2=O` (stereo partly drawn) [I-1365, Ac-PL3-Asp-Npg-B5-Asp-Asp-Ala-Ala-Phe-4F3MeF-PyrS2-3Thi-BztA-Gln-NH2], the IC50 in data set [1] was found to be 9 nM; in data set [2] it was 9.7 µM. In the data set “Solubility in PBS” (Solubility (uM)), this compound returned a Solubility of 22 µM (≈ 44.4 µg/mL).

Consider `CC(=O)N1CCC[C@]12CC=CCCCC1(CCCC=CCCCOC(=O)N3CC[C@@](C(=O)N[C@@H](Cc4ccccc4Cl)C(=O)N[C@@H](Cc4csc5ccccc45)C(=O)N[C@@H](CCC(N)=O)C(N)=O)(C3)NC(=O)[C@H](Cc3ccccc3)NC(=O)[C@H](Cc3ccccc3)NC(=O)[C@H](C)NC(=O)[C@H](C)NC(=O)[C@H](CC(=O)O)NC(=O)[C@H](CC(=O)O)NC1=O)NC(=O)[C@H](CC(C)(C)C)NC(=O)[C@H](CC(=O)O)NC2=O` (stereo partly drawn) [I-1366, Ac-PL3-Asp-Npg-B5-Asp-Asp-Ala-Ala-Phe-Phe-PyrS2-2C1F-BztA-Gln-NH2], for which the IC50 stood at 7 nM in data set [1] and 7.5 µM in data set [2]. The “Solubility” value in the data set “Solubility in PBS” stood at 10 µM (≈ 19.8 µg/mL).

Take `CC(=O)N1CCC[C@]12CC=CCCCC1(CCCC=CCCCOC(=O)N3CC[C@@](C(=O)N[C@@H](Cc4ccccc4Cl)C(=O)N[C@@H](Cc4csc5ccccc45)C(=O)N[C@@H](CCC(N)=O)C(N)=O)(C3)NC(=O)[C@H](Cc3ccccc3C(F)(F)F)NC(=O)[C@H](Cc3ccccc3)NC(=O)[C@H](C)NC(=O)[C@H](C)NC(=O)[C@H](CC(=O)O)NC(=O)[C@H](CC(=O)O)NC1=O)NC(=O)[C@H](CC(C)(C)C)NC(=O)[C@H](CC(=O)O)NC2=O` (stereo partly drawn) [I-1367, Ac-PL3-Asp-Npg-B5-Asp-Asp-Ala-Ala-Phe-2F3MeF-PyrS2-2C1F-BztA-Gln-NH2]: the IC50 in data set [1] stood at 31 nM; in data set [2], 7.8 µM. The “Solubility” value in “Solubility in PBS” is 10 µM (≈ 20.5 µg/mL).

For `CC(=O)N1CCC[C@]12CC=CCCCC1(CCCC=CCCCOC(=O)N3CC[C@@](C(=O)N[C@@H](Cc4ccccc4Cl)C(=O)N[C@@H](Cc4csc5ccccc45)C(=O)N[C@@H](CCC(N)=O)C(N)=O)(C3)NC(=O)[C@H](Cc3cccc(C(F)(F)F)c3)NC(=O)[C@H](Cc3ccccc3)NC(=O)[C@H](C)NC(=O)[C@H](C)NC(=O)[C@H](CC(=O)O)NC(=O)[C@H](CC(=O)O)NC1=O)NC(=O)[C@H](CC(C)(C)C)NC(=O)[C@H](CC(=O)O)NC2=O` (stereo partly drawn) [I-1368, Ac-PL3-Asp-Npg-B5-Asp-Asp-Ala-Ala-Phe-3F3MeF-PyrS2-2C1F-BztA-Gln-NH2], the figures for the IC50 in data set [1] and in data set [2] were 44 nM and 14.2 µM, respectively. Further, the “Solubility” value in “Solubility in PBS” is 10 µM (≈ 20.5 µg/mL).

On to `CC(=O)N1CCC[C@]12CC=CCCCC1(CCCC=CCCCOC(=O)N3CC[C@@](C(=O)N[C@@H](Cc4ccccc4Cl)C(=O)N[C@@H](Cc4csc5ccccc45)C(=O)N[C@@H](CCC(N)=O)C(N)=O)(C3)NC(=O)[C@H](Cc3ccc(C(F)(F)F)cc3)NC(=O)[C@H](Cc3ccccc3)NC(=O)[C@H](C)NC(=O)[C@H](C)NC(=O)[C@H](CC(=O)O)NC(=O)[C@H](CC(=O)O)NC1=O)NC(=O)[C@H](CC(C)(C)C)NC(=O)[C@H](CC(=O)O)NC2=O` (stereo partly drawn) [I-1369, Ac-PL3-Asp-Npg-B5-Asp-Asp-Ala-Ala-Phe-4F3MeF-PyrS2-2C1F-BztA-Gln-NH2], for which the IC50 in data set [1] came out at 29 nM; in data set [2], 9.9 µM. In addition, the “Solubility” value in the data set “Solubility in PBS” turned out to be 10 µM (≈ 20.5 µg/mL).

Consider `CC(=O)N1CCC[C@]12CC=CCCCC1(CCCC=CCCCOC(=O)N3CC[C@@](C(=O)N[C@@H](Cc4ccsc4)C(=O)N[C@@H](Cc4csc5ccccc45)C(=O)N[C@H](CO)[C@@H](C)O)(C3)NC(=O)[C@H](Cc3ccccc3C(F)(F)F)NC(=O)[C@H](Cc3ccccc3)NC(=O)[C@H](C)NC(=O)[C@H](C)NC(=O)[C@H](CC(=O)O)NC(=O)[C@H](CC(=O)O)NC1=O)NC(=O)[C@H](CC(C)(C)C)NC(=O)[C@H](CC(=O)O)NC2=O` (stereo partly drawn) [I-1370, Ac-PL3-Asp-Npg-B5-Asp-Asp-Ala-Ala-Phe-2F3MeF-PyrS2-3Thi-BztA-Thro1], for which the IC50 is 18 nM in data set [1] and 10 µM in data set [2]. The “Solubility” value in the data set “Solubility in PBS” turned out to be 10 µM (≈ 19.8 µg/mL).

On to `CC(=O)N1CCC[C@]12CC=CCCCC1(CCCC=CCCCOC(=O)N3CC[C@@](C(=O)N[C@@H](Cc4ccsc4)C(=O)N[C@@H](Cc4csc5ccccc45)C(=O)N[C@H](CO)[C@@H](C)O)(C3)NC(=O)[C@H](Cc3cccc(C(F)(F)F)c3)NC(=O)[C@H](Cc3ccccc3)NC(=O)[C@H](C)NC(=O)[C@H](C)NC(=O)[C@H](CC(=O)O)NC(=O)[C@H](CC(=O)O)NC1=O)NC(=O)[C@H](CC(C)(C)C)NC(=O)[C@H](CC(=O)O)NC2=O` (stereo partly drawn) [I-1371, Ac-PL3-Asp-Npg-B5-Asp-Asp-Ala-Ala-Phe-3F3MeF-PyrS2-3Thi-BztA-Thro1], for which the figures for the concentration for half-maximal inhibition (IC50) in data set [1] and in data set [2] were 22 nM and 10.9 µM, respectively. Besides, the “Solubility” value in “Solubility in PBS” turned out to be 10 µM (≈ 19.8 µg/mL).

As to `CC(=O)N1CCC[C@]12CC=CCCCC1(CCCC=CCCCOC(=O)N3CC[C@@](C(=O)N[C@@H](Cc4ccsc4)C(=O)N[C@@H](Cc4csc5ccccc45)C(=O)N[C@H](CO)[C@@H](C)O)(C3)NC(=O)[C@H](Cc3ccc(C(F)(F)F)cc3)NC(=O)[C@H](Cc3ccccc3)NC(=O)[C@H](C)NC(=O)[C@H](C)NC(=O)[C@H](CC(=O)O)NC(=O)[C@H](CC(=O)O)NC1=O)NC(=O)[C@H](CC(C)(C)C)NC(=O)[C@H](CC(=O)O)NC2=O` (stereo partly drawn) [I-1372, Ac-PL3-Asp-Npg-B5-Asp-Asp-Ala-Ala-Phe-4F3MeF-PyrS2-3Thi-BztA-Thro1], the values for the 50% inhibitory concentration (IC50) in data set [1] and in data set [2] were 29 nM and 10.2 µM, respectively. Further, the “Solubility” value in the data set “Solubility in PBS” was 10 µM (≈ 19.8 µg/mL).
